Key:
[1] = test system: human hepatoma cells (HEP-G2); assay: Inhibition of 14C-acetate incorporation in digitonin-precipitatable steroids in HEP-G2 cells; assay type: cell-based; details: for percent change in 14C-acetate incorporation into sterols at 0.1 µM / percent change in 14C-acetate incorporation into sterols at 0.01 µM: Homo sapiens; for percent change in 14C-acetate incorporation into sterols at 0.1 µM: HepG2, 10^-7 mol/l; for percent change in 14C-acetate incorporation into sterols at 0.01 µM: HepG2, 10^-8 mol/l
Experimental: I. Measurement of the inhibition of ^14 C-acetate incorporation in digitonin-precipitatable steroids:
After 3 days of culture, human hepatoma cells (HEP-G2) are stimulated for 16 hours in cholesterol-free medium. The substances to be tested (dissolved in dimethyl sulphoxide, final concentration 0.1%) are added during this stimulation phase. After the addition of 200 μmol/l of 2-^14 C-acetate, the mixture is then reincubated at 37° C. for a further 2 hours.
The cells are detached and the sterol esters are hydrolyzed and, after extraction, sterols are precipitated using digitonin. The ^14 C-acetate incorporated into digitonin-precipitatable sterols is determined by scintillation measurement.
The investigation of the inhibitory action was carried out at test concentrations of 10^-7 mol/l and 10^-8 mol/l. The test results of the following compounds A to AG of the general formula I are indicated at these test concentrations by way of example: […]

[2] = test system: 2,3-epoxysqualene-lanosterol cyclase; assay: In vivo effect in the rat after oral administration: 2,3-epoxysqualene level in plasma; parameters: species or system rat (male Wistar); details: 5 hours after administration
Experimental: II. Measurement of the in vivo effect in the rat after oral administration
The inhibition of the enzyme 2,3-epoxysqualene-lanosterol cyclase causes an increase in the 2,3-epoxy-squalene level in the liver and plasma. Therefore, the amount of 2,3-epoxysqualene formed therefore serves as a direct measure of the effectiveness in the whole animal. The determination is carried out by the following method:
The test substance suspended in 1.5% strength aqueous methylcellulose is administered via stomach tube to male Wistar rats (160-190 g body weight). 5 hours after administration, blood is obtained retroorbitally from the venous plexus. Plasma is extracted by the method of Bligh and Dyer (Canad. J. Biochem. Physiol. 37, 912, [1959]), purified by means of a precolumn and then analyzed by means of HPLC. The peaks obtained are identified and quantified by means of calibration substances. An internal standard is used to check the reproducibility of the results.
The investigations were carried out using concentrations of 0.1 and 1.0 mg/kg. The results for the above mentioned substances A to M are compiled in the following Table by way of example: […]

Row | SMILES | percent change in 14C-acetate incorporation into sterols at 0.1 µM [1] [%] | percent change in 14C-acetate incorporation into sterols at 0.01 µM [1] [%] | 2,3-Epoxysqualene concentration in plasma (rat) ([2]; 0.1 mg/kg oral) [µg/mL] | 2,3-Epoxysqualene concentration in plasma (rat) ([2]; 1.0 mg/kg oral) [µg/mL] | inhibition of 14C-acetate incorporation ([1]; 10^-8 mol/l) [%] | inhibition of 14C-acetate incorporation ([1]; 10^-7 mol/l) [%]
1 | O=C(c1ccccc1)N1CCC(=Cc2ccc(C3=NCCO3)cc2)CC1 [AA, 1-benzoyl-4-[4-(2-oxazolin-2-yl)benzylidene]piperidine] | -70 | -25 |  |  |  | 
2 | CC(C)(C)c1ccc(C(=O)N2CCC(=Cc3ccc(C4=NCCO4)cc3)CC2)cc1 [AB, 1-(4-tert.butylbenzoyl)-4-[4-(2-oxazolin-2-yl)benzylidene]piperidine] | -18 | -6 |  |  |  | 
3 | COc1ccc(C(=O)N2CCC(=Cc3ccc(C4=NCCO4)cc3)CC2)cc1 [AC, 1-(4-methoxybenzoyl)-4-[4-(2-oxazolin-2-yl)benzylidene]piperidine] | -25 | -16 |  |  |  | 
4 | O=C(c1ccc(Br)cc1)N1CCC(=Cc2ccc(C3=NCCO3)cc2)CC1 [AD, 1-(4-bromobenzoyl)-4-[4-(2-oxazolin-2-yl)benzylidene]piperidine] | -85 | -44 |  |  |  | 
5 | O=C(c1ccc([N+](=O)[O-])cc1)N1CCC(=Cc2ccc(C3=NCCO3)cc2)CC1 [AE, 1-(4-nitrobenzoyl)-4-[4-(2-oxazolin-2-yl)benzylidene]piperidine] | -71 | -22 |  |  |  | 
6 | O=C(Cc1ccc(Cl)cc1)N1CCC(=Cc2ccc(C3=NCCO3)cc2)CC1 [AF, 1-(4-chlorophenylacetyl)-4-[4-(2-oxazolin-2-yl)benzylidene]piperidine] | -63 | -22 |  |  |  | 
7 | O=C(c1cccc2ccccc12)N1CCC(=Cc2ccc(C3=NCCO3)cc2)CC1 [AG, 1-(1-naphthylcarbonyl)-4-[4-(2-oxazolin-2-yl)benzylidene]piperidine] | -67 | -30 |  |  |  | 
8 | O=C(c1ccc(Cl)cc1)N1CCC(=Cc2ccc(C3=NCCCO3)cc2)CC1 [B, 1-(4-chlorobenzoyl)-4-[4-(4,5-dihydro-6H-oxazin-2-yl)benzylidene]piperidine] | -77 | -51 | 0.46 | 3.14 |  | 
9 | O=C(c1ccc(C(F)(F)F)cc1)N1CCC(=Cc2ccc(C3=NCCO3)cc2)CC1 [C, 4-[4-(2-oxazolin-2-yl)benzylidene]-1-(4-trifluoromethylbenzoyl)piperidine] | -90 | -74 | 0.91 | 5.90 |  | 
10 | Cc1cc(C(=O)N2CCC(=Cc3ccc(C4=NCCO4)cc3)CC2)ccc1Cl [D, 1-(4-chloro-3-methylbenzoyl)-4-[4-(2-oxazolin-2-yl)benzylidene]piperidine] | -88 | -55 | 0.78 | 3.35 |  | 
11 | O=C(c1ccc(F)cc1)N1CCC(=Cc2ccc(C3=NCCO3)cc2)CC1 [E, 1-(4-fluorobenzoyl)-4-[4-(2-oxazolin-2-yl)benzylidene]piperidine] | -81 | -36 | 0.67 | 6.09 |  | 
12 | O=C(c1ccc(Cl)s1)N1CCC(=Cc2ccc(C3=NCCO3)cc2)CC1 [F, 1-(5-chloro-2-thienoyl)-4-[4-(2-oxazolin-2-yl)benzylidene]piperidine] | -84 |  | 0.00 | 2.00 | -55 | 
13 | O=C(C1CCCCC1)N1CCC(=Cc2ccc(C3=NCCO3)cc2)CC1 [G, 1-cyclohexanecarbonyl-4-[4-(2-oxazolin-2-yl)benzylidene]piperidine] | -80 | -45 | 0.36 | 0.31 |  | 
14 | O=C(c1ccc(Cl)cc1)N1CCC(=Cc2ccc(C3=NCCO3)cc2)C1 [K, 1-(4-chlorobenzoyl)-3-[4-(2-oxazolin-2-yl)benzylidene]pyrrolidine] | -90 | -56 | 0.0 | 4.14 |  | 
15 | O=S(=O)(c1ccc(Cl)cc1)N1CCC(=Cc2ccc(C3=NCCO3)cc2)CC1 [N, 1-(4-chlorobenzenesulphonyl)-4-[4-(2-oxazolin-2-yl)benzylidene]piperidine] | -86 | -63 |  |  |  | 
16 | O=S(=O)(c1ccc(Cl)cc1)N1CCC(=Cc2ccc(C3=NCCN3)cc2)CC1 [O, 1-(4-chlorobenzenesulphonyl)-4-[4-(2-imidazolin-2-yl)benzylidene]piperidine] | -45 | -1 |  |  |  | 
17 | O=C(c1ccc(Cl)cc1)N1CCC(Cc2ccc(C3=NCCS3)cc2)CC1 [P, 1-(4-chlorobenzoyl)-4-[4-(2-thiazolin-2-yl)benzyl]piperidine] | -14 | -5 |  |  |  | 
18 | C[C@H]1CN=C(c2ccc(C=C3CCN(C(=O)c4ccc(Cl)cc4)CC3)cc2)O1 [Q, 1-(4-chlorobenzoyl)-4-[4-(S-5-methyl-2-oxazolin-2-yl)benzylidene]piperidine] | -89 | -44 |  |  |  | 
19 | C[C@@H]1COC(c2ccc(C=C3CCN(C(=O)c4ccc(Cl)cc4)CC3)cc2)=N1 [R, 1-(4-chlorobenzoyl)-4-[4-(R-4-methyl-2-oxazolin-2-yl)benzylidene]piperidine] | -88 | -57 |  |  |  | 
20 | O=C(c1ccc(Cl)cc1)N1CCC(=Cc2ccc(C3=NCC(c4ccccc4)O3)cc2)CC1 (centres unmarked) [S, 1-(4-chlorobenzoyl)-4-[4-(5-phenyl-2-oxazolin-2-yl)benzylidene]piperidine] | -24 | 0 |  |  |  | 
21 | CCN(CC)CC1CN=C(c2ccc(C=C3CCN(C(=O)c4ccc(Cl)cc4)CC3)cc2)O1 (centres unmarked) [T, 1-(4-chlorobenzoyl)-4-[4-(5-diethylaminomethyl-2-oxazolin-2-yl)benzylidene]piperidine] | -57 | -29 |  |  |  | 
22 | O=C(c1ccc(Cl)cc1)N1CCC(=Cc2ccc(C3=NC(CO)CO3)cc2)CC1 (centres unmarked) [U, 1-(4-chlorobenzoyl)-4-[4-(4-hydroxymethyl-2-oxazolin-2-yl)benzylidene]piperidine] | -60 | -21 |  |  |  | 
23 | O=C(c1ccc(Cl)cc1)N1CCC(=Cc2ccc(C3=N[C@@H](Cc4ccccc4)CO3)cc2)CC1 [V, 4-[4-(S-4-benzyl-2-oxazolin-2-yl)benzylidene]-1-(4-chlorobenzoyl)piperidine] | -29 | -15 |  |  |  | 
24 | CC(=C1CCN(C(=O)c2ccc(Cl)cc2)CC1)c1ccc(C2=NCCO2)cc1 [W, 1-(4-chlorobenzoyl)-4-[4-(2-oxazolin-2-yl)-α-methylbenzylidene]piperidine] | -77 | -35 |  |  |  | 
25 | O=C(c1ccc(Cl)s1)N1CCC(=Cc2ccc(C3=NCCO3)cc2)CC1 [X, 1-(5-chloro-2-thienoyl)-4-[4-(2-oxazolin-2-yl)benzylidene]piperidine] |  |  |  |  | -35 | -84
26 | N#Cc1ccc(C(=O)N2CCC(=Cc3ccc(C4=NCCO4)cc3)CC2)cc1 [Y, 1-(4-cyanobenzoyl)-4-[4-(2-oxazolin-2-yl)benzylidene]piperidine] | -74 | -51 |  |  |  | 
27 | O=C(c1c(F)c(F)c(F)c(F)c1F)N1CCC(=Cc2ccc(C3=NCCO3)cc2)CC1 [Z, 4-[4-(2-oxazolin-2-yl)benzylidene]-1-(pentafluorobenzoyl)piperidine] | -45 | -8 |  |  |  | 

Reference: patent publication US5466687A, “Arylidene-1-azacycloalkanes and arylalkyl-1-azacyclo-alkanes, their salts, medicaments containing these compounds and their use, and processes for their preparation” (priority 1992, dated 1995)
